Test results published in publication PMC5354938, “Spleen cells from young but not old immunized mice eradicate large established cancers” (Clinical cancer research : an official journal of the …, 2012).
Where two headings read alike, the source gives them in different places. Ends that are not written are not given here.

Legend:
H2-D^b = H2-D^b (Mus musculus, UniProt P01899); details: MHC D^b; geometric mean of 5 or more experiments; Published in ref [19]; read-out: Affinity of peptide for MHC (IC50); cited from earlier work
Sequence of H2-D^b (P01899 whole entry, looked up): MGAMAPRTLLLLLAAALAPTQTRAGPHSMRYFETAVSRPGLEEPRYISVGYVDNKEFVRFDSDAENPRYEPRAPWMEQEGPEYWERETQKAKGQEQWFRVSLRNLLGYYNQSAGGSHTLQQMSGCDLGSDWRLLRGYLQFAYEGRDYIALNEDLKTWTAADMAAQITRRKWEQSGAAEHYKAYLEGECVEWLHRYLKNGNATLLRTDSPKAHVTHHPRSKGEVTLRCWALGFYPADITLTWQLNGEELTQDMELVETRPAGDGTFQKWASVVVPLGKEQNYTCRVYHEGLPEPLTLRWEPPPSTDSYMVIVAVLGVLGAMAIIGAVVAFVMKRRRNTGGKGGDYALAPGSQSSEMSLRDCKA

H2-K^b [1] = biological target: T1, H2-K^b (Mus musculus, UniProt P01901); assay: MHC peptide binding assay, purified H2-K^b
T1 construct: made in house
T1 sequence (P01901 22-369): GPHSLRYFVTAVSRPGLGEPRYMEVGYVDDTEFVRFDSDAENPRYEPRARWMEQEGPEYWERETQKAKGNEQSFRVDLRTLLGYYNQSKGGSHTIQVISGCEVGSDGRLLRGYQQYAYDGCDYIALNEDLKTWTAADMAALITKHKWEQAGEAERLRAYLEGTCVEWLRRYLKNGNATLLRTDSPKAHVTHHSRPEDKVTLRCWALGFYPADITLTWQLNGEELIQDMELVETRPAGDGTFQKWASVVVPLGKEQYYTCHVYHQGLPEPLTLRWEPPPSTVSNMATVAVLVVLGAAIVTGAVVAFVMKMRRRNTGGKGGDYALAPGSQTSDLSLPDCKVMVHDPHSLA
T1 sequence (P01887 21-119 partner): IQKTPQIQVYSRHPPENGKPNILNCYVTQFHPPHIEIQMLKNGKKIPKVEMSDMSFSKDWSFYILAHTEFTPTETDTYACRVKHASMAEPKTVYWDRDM
Procedure: MHC purification, and quantitative assays to measure the binding affinity of peptides to purified H2-K^b, H2-D^b, and HLA-A*0201 molecules were performed as previously described ([49], [50]).

H2-K^b [2] = biological target: T1, H2-K^b; details: MHC K^b; geometric mean of 5 or more experiments; Published in ref [19]; read-out: Affinity of peptide for MHC (IC50); cited from earlier work
[3] = Affinity of peptide for MHC (IC50), MHC K^b, purified H2-K^b, geometric mean of 5 or more experiments

In the case of IGMFNLTFI [A23R (297-305)], the IC50 (H2-D^b) is given as 0.34 nM.
In the case of SNFVFAGI [mp68 (547-554, 5F)], the IC50 (H2-K^b [1]; [3]) is reported as 0.48 nM and the IC50 (H2-K^b [1]; binding to MHC Class I molecules with very high affinity (bound), discussion statement, very high affinity) is reported as less than 1 nM.
Sequence SNFVSAGI [p68 (547-554)] has an IC50 (H2-K^b [1]; [3]) of 22 nM.
For YTLIYRQL [A6L (265-272)], the IC50 (H2-K^b [2]) is given as 6 nM.
